Reference: patent US7045343B2, “Sterilization indicator test packs” (3M Innovative Properties Company, priority 1998, dated 2006)

How the values were obtained:
[1] = system: Bacillus stearothermophilus spores; experiment: Spore outgrowth (color change) of indicators after prevacuum steam sterilization; type: cell-based; details: 4-pulse prevacuum steam 121° C., 7–13 min
Protocol: (§1) The indicators prepared for the Examples were dual rapid readout indicators that provided both a rapid, enzyme-based efficacy test and a confirmatory spore outgrowth test. Spores coated on the carrier strip 16 served as the source of active enzyme whose activity was measured by the rapid enzyme test. These same spores were then incubated in the spore outgrowth portion of the test.
(§2) Bacillus stearothermophilus, commercially available as ATCC 7953 from American Type Culture Collection, Rockville, Md., was grown overnight (16 hours) at 58° C. in tryptic soy broth. This culture was used to inoculate the surface of agar plates consisting of 8 g/l nutrient broth, 4 g/l yeast extract, 0.1 g/l manganese chloride and 20 g/l agar at pH 7.2. Plates were incubated at 58° C. for 72 hours. Spores were scraped from the plates and suspended in sterile distilled water. The spores were separated from the vegetative debris by centrifuging the suspension at 7000 rpm and 4° C. for 20 minutes. The supernatant was poured off and the spores were resuspended in sterile distilled water. The cleaning procedure was repeated several times. After the final wash, the spores were suspended in sterile distilled water, at a concentration of approximately 1×10^8 spores per milliliter.
(§3) The spores were then treated with the chemicals identified in Tables 1–5. All chemicals tested were obtained from commercial sources. The spores were centrifuged at 6000 rpm for 10 minutes. The supernatant and coating chemical mixtures were heated at 60–80° C. for several minutes and vortexed to get the material into solution. The spores were then mixed into the sterilant-resistant chemical solution. The sterilant-resistant chemical solution was applied to 5×25 mm, 591 A paper strips (Schleicher & Schuell, Inc., Keene, N.H.) by pipetting 10–15 microliters to each strip for a final population of about 1×10^6 spores per strip. The strips were dried 16 hours at 37° C.
(§4) The treated spore strips were placed on the bottom of the outer container 12 of the indicator 10 and a barrier was inserted between the spore strip 16 and the inner container 18, which contained enzyme substrate. A […] ( 11/16 inch) disc of polypropylene blown microfiber material, with a weight of 200 g/m^2, commercially available as “THINSULATE™ 200-B brand Thermal Insulation” from 3M Company, St. Paul, Minn., was used as the barrier. The inner container 18 contained 0.67 ml nutrient medium, consisting of 17 g of a bacteriological peptone and a 0.17 g/l of L-alanine, as well as 0.1 g 4-methylumbelliferyl-alpha-D-glucoside, commercially available from Sigma Chemical Company, St. Louis, Mo., dissolved in 200 microliters of N,N-dimethylformamide, and 0.03 g bromocresol purple pH indicator dye, per liter of water. The pH of the enzyme substrate and nutrient medium solution was adjusted to 7.6 with 0.1N sodium hydroxide.
(§5) Sterilization indicators were made as described above with each of the chemicals and concentrations described in Table 1. Control indicators were made using untreated spores. The indicators were placed in metal instrument trays and exposed at 121° C. in a Getinge Steam Sterilizer (Getinge International, Inc., 1100 Towbin Ave., Lakewood, N.J.) using a 4-pulse prevacuum cycle at 121° C. with a vacuum level of 0.075–0.085 bar and a steam pulse to 1.00 bar for each pulse. Indicators were exposed in the sterilizer for between 7 and 13 minutes. This cycle is depicted in the time-pressure diagram in FIG. 5. After exposure the inner containers containing the enzyme substrate and nutrient medium were crushed and the indicators were incubated at 60° C. The indicators were examined for fluorescence using a 3M™ ATTEST™ Model 190 Rapid Autoreader, commercially available from 3M Company, St. Paul, Minn. Additionally, spore growth, as indicated by a color change from purple to yellow, was determined visually after 168 hours of incubation at 60° C. […]

[2] = system: enzyme associated with Bacillus stearothermophilus spores; experiment: Rapid enzyme fluorescence readout of dual rapid readout indicators after prevacuum steam sterilization; type: biochemical; details: 4-pulse prevacuum steam 121° C.; for FLUORESCENCE - PERCENT POSITIVE 1 HR / FLUORESCENCE - PERCENT POSITIVE 2 HR / FLUORESCENCE - PERCENT POSITIVE 3 HR / FLUORESCENCE - PERCENT POSITIVE 4 HR / FLUORESCENCE - PERCENT POSITIVE 5 HR / FLUORESCENCE - PERCENT POSITIVE 6 HR: 7–13 min
Protocol: as §1, §2, §3, §4, §5

## Hexaglyceryl Monostearate
[1]; Example 1, 5 mg/ml coating
  NO. GROWTH POSITIVE 168 HR: 50
[1]; Example 1, 10 mg/ml coating
  NO. GROWTH POSITIVE 168 HR: 44
[1]; Example 1, 20 mg/ml coating
  NO. GROWTH POSITIVE 168 HR: 44
[2]; Example 1, 5 mg/ml coating
  FLUORESCENCE - PERCENT POSITIVE 1 HR: 0%
  FLUORESCENCE - PERCENT POSITIVE 2 HR: 32.0%
  FLUORESCENCE - PERCENT POSITIVE 3 HR: 78.0%
  FLUORESCENCE - PERCENT POSITIVE 4 HR: 84.0%
  FLUORESCENCE - PERCENT POSITIVE 5 HR: 90.0%
  FLUORESCENCE - PERCENT POSITIVE 6 HR: 94.0%
[2]; Example 1, 10 mg/ml coating
  FLUORESCENCE - PERCENT POSITIVE 1 HR: 0%
  FLUORESCENCE - PERCENT POSITIVE 2 HR: 31.8%
  FLUORESCENCE - PERCENT POSITIVE 3 HR: 63.6%
  FLUORESCENCE - PERCENT POSITIVE 4 HR: 79.5%
  FLUORESCENCE - PERCENT POSITIVE 5 HR: 84.1%
  FLUORESCENCE - PERCENT POSITIVE 6 HR: 86.4%
[2]; Example 1, 20 mg/ml coating
  FLUORESCENCE - PERCENT POSITIVE 1 HR: 0%
  FLUORESCENCE - PERCENT POSITIVE 2 HR: 61.4%
  FLUORESCENCE - PERCENT POSITIVE 3 HR: 86.4%
  FLUORESCENCE - PERCENT POSITIVE 4 HR: 95.5%
  FLUORESCENCE - PERCENT POSITIVE 5 HR: 97.7%
  FLUORESCENCE - PERCENT POSITIVE 6 HR: 97.7%

## OCC(O)COCC(O)COCC(O)COCC(O)COCC(O)COCC(O)CO (stereo not drawn) [Hexaglycerol]
[1]; Example 2, 5 mg/ml coating
  NO. GROWTH POSITIVE 168 HR: 11
[1]; Example 2, 10 mg/ml coating
  NO. GROWTH POSITIVE 168 HR: 20
[1]; Example 2, 20 mg/ml coating
  NO. GROWTH POSITIVE 168 HR: 18
[1]; Example 2, 40 mg/ml coating
  NO. GROWTH POSITIVE 168 HR: 26
[1]; Example 2, 80 mg/ml coating
  NO. GROWTH POSITIVE 168 HR: 24
[2]
  accuracy of sterilization indicators compared to indicators made with untreated spores: did not improve the accuracy
[2]; Example 2, 5 mg/ml coating
  FLUORESCENCE - PERCENT POSITIVE 1 HR: 0%
  FLUORESCENCE - PERCENT POSITIVE 2 HR: 0%
  FLUORESCENCE - PERCENT POSITIVE 3 HR: 0%
  FLUORESCENCE - PERCENT POSITIVE 4 HR: 9.1%
  FLUORESCENCE - PERCENT POSITIVE 5 HR: 45.5%
  FLUORESCENCE - PERCENT POSITIVE 6 HR: 63.6%
[2]; Example 2, 10 mg/ml coating
  FLUORESCENCE - PERCENT POSITIVE 1 HR: 0%
  FLUORESCENCE - PERCENT POSITIVE 2 HR: 0%
  FLUORESCENCE - PERCENT POSITIVE 3 HR: 5.0%
  FLUORESCENCE - PERCENT POSITIVE 4 HR: 15.0%
  FLUORESCENCE - PERCENT POSITIVE 5 HR: 35.0%
  FLUORESCENCE - PERCENT POSITIVE 6 HR: 50.0%
[2]; Example 2, 20 mg/ml coating
  FLUORESCENCE - PERCENT POSITIVE 1 HR: 0%
  FLUORESCENCE - PERCENT POSITIVE 2 HR: 0%
  FLUORESCENCE - PERCENT POSITIVE 3 HR: 11.1%
  FLUORESCENCE - PERCENT POSITIVE 4 HR: 38.9%
  FLUORESCENCE - PERCENT POSITIVE 5 HR: 50.0%
  FLUORESCENCE - PERCENT POSITIVE 6 HR: 61.1%
[2]; Example 2, 40 mg/ml coating
  FLUORESCENCE - PERCENT POSITIVE 1 HR: 0%
  FLUORESCENCE - PERCENT POSITIVE 2 HR: 0%
  FLUORESCENCE - PERCENT POSITIVE 3 HR: 26.9%
  FLUORESCENCE - PERCENT POSITIVE 4 HR: 46.2%
  FLUORESCENCE - PERCENT POSITIVE 5 HR: 53.8%
  FLUORESCENCE - PERCENT POSITIVE 6 HR: 61.5%
[2]; Example 2, 80 mg/ml coating
  FLUORESCENCE - PERCENT POSITIVE 1 HR: 0%
  FLUORESCENCE - PERCENT POSITIVE 2 HR: 0%
  FLUORESCENCE - PERCENT POSITIVE 3 HR: 37.5%
  FLUORESCENCE - PERCENT POSITIVE 4 HR: 58.3%
  FLUORESCENCE - PERCENT POSITIVE 5 HR: 70.8%
  FLUORESCENCE - PERCENT POSITIVE 6 HR: 70.8%
